The text below walks through data of patent US7445764B1, “Carrier-drug conjugate” (priority 1999, dated 2008).

The target in series [1] is HSA-Cys^34-2 (conjugate of DTT-treated human serum albumin with doxorubicin-maleinimide-peptide derivative 2) (UniProt P02768).
Series [2] has as its system RENCA, renal cell carcinoma. Conditions: female, Balb/c, mouse, in vivo.
Source text: (§1) Animals: Balb/c mice, female; tumor: RENCA, renal cell carcinoma; therapy: day (d) 10, 14, 18, 21 intravenous (i.v.); end of trial: d 25.
(§2) The dose is relative to the quantity of doxorubicin present.
Series [3] deals with RENCA, renal cell carcinoma. Nature of the series: RENCA (renal cell carcinoma) model, antitumoral action at approximately equitoxic dose. Conditions: RENCA in Balb/c mice.
Source text: as §1, §2

Sequence of HSA-Cys^34-2 (conjugate of DTT-treated human serum albumin with doxorubicin-maleinimide-peptide derivative 2) (P02768 whole entry, looked up, tested part not stated): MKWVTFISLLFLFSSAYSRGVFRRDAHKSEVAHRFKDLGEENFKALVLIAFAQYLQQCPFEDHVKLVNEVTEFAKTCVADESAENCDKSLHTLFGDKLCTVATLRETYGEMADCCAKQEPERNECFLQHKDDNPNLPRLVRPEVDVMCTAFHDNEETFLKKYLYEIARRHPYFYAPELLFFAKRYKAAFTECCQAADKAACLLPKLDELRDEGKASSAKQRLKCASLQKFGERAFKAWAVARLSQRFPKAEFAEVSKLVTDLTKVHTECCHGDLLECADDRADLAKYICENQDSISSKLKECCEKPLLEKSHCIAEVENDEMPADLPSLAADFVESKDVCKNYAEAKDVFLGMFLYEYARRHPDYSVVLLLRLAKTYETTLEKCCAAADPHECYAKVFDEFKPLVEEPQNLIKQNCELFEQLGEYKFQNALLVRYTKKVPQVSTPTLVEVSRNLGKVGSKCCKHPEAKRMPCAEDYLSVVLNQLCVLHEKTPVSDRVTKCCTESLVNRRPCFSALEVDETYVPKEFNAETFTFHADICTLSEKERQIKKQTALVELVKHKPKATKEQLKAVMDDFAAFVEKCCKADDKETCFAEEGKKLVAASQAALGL

With “matrix metalloprotease MMP 9 (trypsine/aprotinine-activated, from Calbiochem, Germany)”, the “liberation of DOXO-Gln-Gly-Ala-Ile due to cleavage with MMP 9 (HPLC gel chromatography, t=0 against t=30 min)” value in series [1] is listed as “The liberation of DOXO-Gln-Gly-Ala-Ile due to cleavage with MMP 9 was confirmed by HPLC gel chromatography”.
Turning to `COc1cccc2c1C(=O)c1c(O)c3c(c(O)c1C2=O)C[C@@](O)(C(=O)CO)C[C@@H]3O[C@H]1C[C@H](N)[C@H](O)[C@H](C)O1` [Doxorubicin, doxorubicin], the “Mortality (d)” value in series [2] came to 1. In addition, the Visible renal tumors result in series [3] (FIG. 3A) is given as “plainly visible renal tumors were observed in all animals”. The “Number of pulmonary metastases, average” value in series [3] (FIG. 3B) was approximately 100 metastases per mouse. The Complete remission result in series [3] (i.v. d 10, 14, 18, 21, end of trial d 25, approximately equitoxic doses) is “no complete remissions”.
